Holding throughout (assay): PDK1 Kinase Activity Assay
Common to all, as to conditions: pH 7.5; 30 °C

Assay [1] concerns the target T1, 3-phosphoinositide-dependent protein kinase 1 [51-359] (Human, UniProt O15530).
T1 construct: 51-359
T1 sequence (O15530 whole entry): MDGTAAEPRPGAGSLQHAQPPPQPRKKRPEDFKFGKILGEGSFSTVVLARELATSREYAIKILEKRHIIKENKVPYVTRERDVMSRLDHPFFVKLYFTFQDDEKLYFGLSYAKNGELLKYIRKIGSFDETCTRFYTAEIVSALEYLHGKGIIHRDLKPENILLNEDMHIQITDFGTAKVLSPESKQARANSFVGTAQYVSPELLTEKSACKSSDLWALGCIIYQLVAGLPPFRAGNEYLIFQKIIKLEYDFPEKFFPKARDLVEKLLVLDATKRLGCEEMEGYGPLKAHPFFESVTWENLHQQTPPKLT

Assay [2] deals with T2, 3-phosphoinositide-dependent protein kinase 1 [51-359,E166D] (Homo sapiens, UniProt O15530, E166D).
T2 construct: 51-359

Assay [3] addresses T3, 3-phosphoinositide-dependent protein kinase 1 [51-359,V143T,T222A] (Homo sapiens, UniProt O15530, T222A/V143T).
T3 construct: 51-359

In assay [4] the target is T4, 3-phosphoinositide-dependent protein kinase 1 [51-359,V143T] (Homo sapiens, UniProt O15530, V143T).
T4 construct: 51-359

The target of assay [5] is T5, 3-phosphoinositide-dependent protein kinase 1 [51-359,A162V] (Homo sapiens, UniProt O15530, A162V).
T5 construct: 51-359

Assay [6] addresses T6, 3-phosphoinositide-dependent protein kinase 1 [51-359,T222A] (Homo sapiens, UniProt O15530, T222A).
T6 construct: 51-359

Assay [7] addresses T7, 3-phosphoinositide-dependent protein kinase 1 [51-359,L159M] (Homo sapiens, UniProt O15530, L159M).
T7 construct: 51-359

This is an account of results in BindingDB's records for doi:10.1016/j.str.2004.01.005 (University of Dundee, 2004).

T2 sequence (O15530 51-359 E166D): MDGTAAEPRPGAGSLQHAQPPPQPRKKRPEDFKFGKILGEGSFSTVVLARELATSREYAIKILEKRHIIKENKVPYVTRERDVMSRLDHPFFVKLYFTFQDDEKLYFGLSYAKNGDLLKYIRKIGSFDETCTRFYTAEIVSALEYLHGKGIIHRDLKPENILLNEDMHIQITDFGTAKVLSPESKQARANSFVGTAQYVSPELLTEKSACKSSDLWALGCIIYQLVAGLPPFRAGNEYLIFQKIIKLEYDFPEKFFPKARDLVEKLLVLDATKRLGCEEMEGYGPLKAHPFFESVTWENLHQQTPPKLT
T3 sequence (O15530 51-359 V143T/T222A): as the sequence (O15530 51-359 E166D) above, with V93T, D116E, T172A counted along it
T5 sequence (O15530 51-359 A162V): as the sequence (O15530 51-359 E166D) above, with A112V, D116E counted along it
T6 sequence (O15530 51-359 T222A): as the sequence (O15530 51-359 E166D) above, with D116E, T172A counted along it
T7 sequence (O15530 51-359 L159M): as the sequence (O15530 51-359 E166D) above, with L109M, D116E counted along it
T4 sequence (O15530 51-359 V143T): as the sequence (O15530 51-359 E166D) above, with V93T, D116E counted along it

As for `CN(C)CCCn1cc(C2=C(c3c[nH]c4ccccc34)C(=O)NC2=O)c2ccccc21` [2-[1-(3-dimethylaminopropyl)-indol-3-yl]-3-(indol-3-yl)maleimide], in assay [1], the IC50 amounted to 9 µM.
Take `CN1CCCC1CCn1cc(C2=C(c3c[nH]c4ccccc34)C(=O)NC2=O)c2ccccc21` (stereo not given) [3-(1H-indol-3-yl)-4-{1-[2-(1-methylpyrrolidin-2-yl)ethyl]-1H-indol-3-yl}-2,5-dihydro-1H-pyrrole-2,5-dione]: the IC50 in assay [1] stood at 14 µM.
`NCCCn1cc(C2=C(c3c[nH]c4ccccc34)C(=O)NC2=O)c2ccccc21` [Bisindolyl deriv. 19]: the IC50 in assay [2] came to 5.7 µM; in assay [3] it was 2 µM; in assay [1] it was 4 µM; in assay [4] it was 2.5 µM; in assay [5] it was 3.4 µM; in assay [6], 3.8 µM. Moreover, the IC50 in assay [7] was 3 µM.
In assay [1], `Cn1cc(C2=C(c3cn(CCCN)c4ccccc34)C(=O)NC2=O)c2ccccc21` [Ro 31-7549] yielded an IC50 of 1 µM.

As usually defined, the IC50 is the concentration that inhibits the measured activity by half. A higher IC50 goes with a need for much substance.
